Reference: the NIST ThermoML archive (doi:10.1016/j.tca.2013.03.025)
Numbers after ± are expanded uncertainties.

Assay: xn = mol fraction of the nth substance listed
Conditions: 101 kPa, Liquid; for viscosity: Concentric cylinders viscometry; for mass density: Vibrating tube method

CCCCOC(=O)C(C)O (stereo not given) [butyl 2-hydroxypropanoate] + OCCCO
Conditions | mass density [kg/m3] | viscosity [mPa·s]
288.15 K, x1 = 0.0999 | 1046.52 ± 0.36 | 55.22 ± 0.56
288.15 K, x1 = 0.2 | 1037.84 ± 0.47 | 41.92 ± 0.46
288.15 K, x1 = 0.3001 | 1029.39 ± 0.59 | 31.27 ± 0.37
288.15 K, x1 = 0.4 | 1022.24 ± 0.72 | 22.91 ± 0.28
288.15 K, x1 = 0.4999 | 1015.45 ± 0.87 | 16.95 ± 0.22
288.15 K, x1 = 0.5999 | 1009.2 ± 1 | 12.66 ± 0.18
288.15 K, x1 = 0.6996 | 1003.51 ± 1.2 | 9.596 ± 0.14
288.15 K, x1 = 0.8001 | 997.914 ± 1.4 | 7.373 ± 0.12
288.15 K, x1 = 0.9 | 992.76 ± 1.6 | 5.629 ± 0.093
288.15 K, x1 = 1 | 987.269 ± 1.8 | 4.628 ± 0.081
293.15 K, x1 = 0.0999 | 1043.16 ± 0.36 | 42.99 ± 0.45
293.15 K, x1 = 0.2 | 1034.24 ± 0.46 | 32.73 ± 0.36
293.15 K, x1 = 0.3001 | 1025.58 ± 0.58 | 24.47 ± 0.29
293.15 K, x1 = 0.4 | 1018.23 ± 0.71 | 18.13 ± 0.23
293.15 K, x1 = 0.4999 | 1011.25 ± 0.86 | 13.54 ± 0.18
293.15 K, x1 = 0.5999 | 1004.84 ± 1 | 10.21 ± 0.14
293.15 K, x1 = 0.6996 | 999.008 ± 1.2 | 7.805 ± 0.12
293.15 K, x1 = 0.8001 | 993.26 ± 1.4 | 6.064 ± 0.095
293.15 K, x1 = 0.9 | 987.976 ± 1.6 | 4.686 ± 0.077
293.15 K, x1 = 1 | 982.366 ± 1.8 | 3.88 ± 0.068
298.15 K, x1 = 0.0999 | 1039.79 ± 0.36 | 33.94 ± 0.35
298.15 K, x1 = 0.2 | 1030.62 ± 0.46 | 25.91 ± 0.29
298.15 K, x1 = 0.3001 | 1021.73 ± 0.57 | 19.59 ± 0.23
298.15 K, x1 = 0.4 | 1014.19 ± 0.71 | 14.51 ± 0.18
298.15 K, x1 = 0.4999 | 1007.03 ± 0.85 | 10.96 ± 0.14
298.15 K, x1 = 0.5999 | 1000.47 ± 1 | 8.355 ± 0.12
298.15 K, x1 = 0.6996 | 994.488 ± 1.2 | 6.444 ± 0.096
298.15 K, x1 = 0.8001 | 988.587 ± 1.4 | 5.056 ± 0.079
298.15 K, x1 = 0.9 | 983.173 ± 1.6 | 3.957 ± 0.066
298.15 K, x1 = 1 | 977.448 ± 1.8 | 3.307 ± 0.058
303.15 K, x1 = 0.0999 | 1036.41 ± 0.35 | 27.14 ± 0.28
303.15 K, x1 = 0.2 | 1026.99 ± 0.45 | 20.8 ± 0.23
303.15 K, x1 = 0.3001 | 1017.87 ± 0.57 | 15.82 ± 0.19
303.15 K, x1 = 0.4 | 1010.14 ± 0.7 | 11.86 ± 0.15
303.15 K, x1 = 0.4999 | 1002.79 ± 0.84 | 8.984 ± 0.12
303.15 K, x1 = 0.5999 | 996.07 ± 1 | 6.919 ± 0.097
303.15 K, x1 = 0.6996 | 989.946 ± 1.2 | 5.405 ± 0.08
303.15 K, x1 = 0.8001 | 983.896 ± 1.4 | 4.286 ± 0.067
303.15 K, x1 = 0.9 | 978.359 ± 1.6 | 3.386 ± 0.056
303.15 K, x1 = 1 | 972.515 ± 1.8 | 2.86 ± 0.05
308.15 K, x1 = 0.0999 | 1033 ± 0.35 | 21.95 ± 0.23
308.15 K, x1 = 0.2 | 1023.33 ± 0.45 | 16.89 ± 0.19
308.15 K, x1 = 0.3001 | 1013.99 ± 0.56 | 12.93 ± 0.15
308.15 K, x1 = 0.4 | 1006.06 ± 0.69 | 9.744 ± 0.12
308.15 K, x1 = 0.4999 | 998.523 ± 0.84 | 7.491 ± 0.099
308.15 K, x1 = 0.5999 | 991.652 ± 1 | 5.805 ± 0.082
308.15 K, x1 = 0.6996 | 985.382 ± 1.2 | 4.581 ± 0.068
308.15 K, x1 = 0.8001 | 979.183 ± 1.4 | 3.667 ± 0.058
308.15 K, x1 = 0.9 | 973.522 ± 1.6 | 2.929 ± 0.049
308.15 K, x1 = 1 | 967.567 ± 1.8 | 2.481 ± 0.043
313.15 K, x1 = 0.0999 | 1029.57 ± 0.35 | 17.95 ± 0.19
313.15 K, x1 = 0.2 | 1019.65 ± 0.45 | 13.87 ± 0.15
313.15 K, x1 = 0.3001 | 1010.09 ± 0.56 | 10.69 ± 0.13
313.15 K, x1 = 0.4 | 1001.96 ± 0.69 | 8.124 ± 0.1
313.15 K, x1 = 0.4999 | 994.239 ± 0.83 | 6.299 ± 0.084
313.15 K, x1 = 0.5999 | 987.21 ± 0.99 | 4.926 ± 0.069
313.15 K, x1 = 0.6996 | 980.794 ± 1.2 | 3.922 ± 0.058
313.15 K, x1 = 0.8001 | 974.453 ± 1.4 | 3.171 ± 0.05
313.15 K, x1 = 0.9 | 968.668 ± 1.6 | 2.558 ± 0.043
313.15 K, x1 = 1 | 962.603 ± 1.8 | 2.181 ± 0.038
318.15 K, x1 = 0.0999 | 1026.13 ± 0.34 | 14.83 ± 0.16
318.15 K, x1 = 0.2 | 1015.95 ± 0.44 | 11.5 ± 0.13
318.15 K, x1 = 0.3001 | 1006.16 ± 0.55 | 8.916 ± 0.11
318.15 K, x1 = 0.4 | 997.828 ± 0.68 | 6.84 ± 0.086
318.15 K, x1 = 0.4999 | 989.925 ± 0.82 | 5.351 ± 0.071
318.15 K, x1 = 0.5999 | 982.743 ± 0.98 | 4.221 ± 0.06
318.15 K, x1 = 0.6996 | 976.184 ± 1.2 | 3.391 ± 0.051
318.15 K, x1 = 0.8001 | 969.697 ± 1.3 | 2.768 ± 0.044
318.15 K, x1 = 0.9 | 963.791 ± 1.5 | 2.253 ± 0.038
318.15 K, x1 = 1 | 957.624 ± 1.7 | 1.935 ± 0.034
323.15 K, x1 = 0.0999 | 1022.65 ± 0.34 | 12.36 ± 0.13
323.15 K, x1 = 0.2 | 1012.21 ± 0.44 | 9.627 ± 0.11
323.15 K, x1 = 0.3001 | 1002.2 ± 0.55 | 7.519 ± 0.089
323.15 K, x1 = 0.4 | 993.673 ± 0.68 | 5.813 ± 0.073
323.15 K, x1 = 0.4999 | 985.589 ± 0.82 | 4.586 ± 0.061
323.15 K, x1 = 0.5999 | 978.248 ± 0.98 | 3.65 ± 0.052
323.15 K, x1 = 0.6996 | 971.548 ± 1.1 | 2.958 ± 0.044
323.15 K, x1 = 0.8001 | 964.924 ± 1.3 | 2.435 ± 0.039
323.15 K, x1 = 0.9 | 958.899 ± 1.5 | 2.002 ± 0.034
323.15 K, x1 = 1 | 952.631 ± 1.7 | 1.728 ± 0.031
